According to patent publication US20190022104A1 (priority 2016, published 2019):
Values joined by “and” are separate entries in the source; they are usually repeats but may differ in a detail not shown here. Equal values may be shown once. “Also recorded” adds a separate entry of the source. Read-outs that look alike come from different tables or passages of the source.

Experiments:
[1] = tested on: mice with sepsis shock induced by 150 mg/kg endotoxin; experiment: Survival time of mice with sepsis shock induced by 150 mg/kg endotoxin; format: in vivo; conditions: for average survival time of mice: 150 mg/kg endotoxin i.p. (total lethal dose), endotoxin group 29.15±6.84 hours, p<0.05 vs endotoxin group
Procedure: (§1) The model of septic shock in mice was induced by intraperitoneal injection of a toxic dose of 75 mg/kg endotoxin. […] The model of sepsis shock in mice was induced by intraperitoneal injection of a total lethal dose of 150 mg/kg endotoxin. […] Mice injected intraperitoneally with placebo in place of endotoxin were used as a normal control group.
The septic shock in mice was induced with 150 mg/kg endotoxin and the survival curves were plotted according to the survival time of mice in each group.

TNF-α in serum = experiment: Serum TNF-α concentration in rats with endotoxin-induced sepsis shock; format: in vivo
[2] = tested on: lung tissue of rats with sepsis shock; experiment: Pathological change in lung tissue under microscope, rats with sepsis shock; format: in vivo; conditions: compared with the endotoxin group
[3] = tested on: mice with sepsis shock induced by 75 mg/kg endotoxin; experiment: Survival of mice with sepsis shock induced by 75 mg/kg endotoxin; format: in vivo; conditions: for number of mice survived / number of mice died: 10 mice per group; for number of mice survived: endotoxin group 4 survived; for number of mice died: endotoxin group 6 died; for survival rate of mice: sepsis shock induced by 75 mg/kg endotoxin i.p., 10 animals per group, endotoxin group 40%, normal control 100%
Procedure: as §1
The model of sepsis shock in mice was induced with 75 mg/kg endotoxin.

[4] = tested on: liver tissue of rats with sepsis shock; experiment: Pathological change in liver tissue under microscope, rats with sepsis shock; format: in vivo; conditions: compared with the endotoxin group
Procedure: as §1

[5] = cited from earlier work
[6] = tested on: mouse sepsis model (LPS 75 mg/kg); experiment: Effects of different doses of pirenzepine in LPS mouse sepsis model; conditions: 0.3-1.2 mg/kg i.p.; no statistically significant difference between dose groups
Procedure: After 30 minutes, LPS (75 mg/kg) was injected intraperitoneally to produce a mouse sepsis model.

[7] = cited from earlier work; remark: listed apart in the source
[8] = tested on: gastric and duodenal ulcers; conditions: patients; cited from earlier work
[9] = 0 min after sepsis shock was reached, endotoxin group 641.05±24.75, normal control 159.36±50.40
[10] = 30 min after sepsis shock was reached, endotoxin group 677.95±47.05, normal control 223.41±27.42
[11] = 90 min after sepsis shock was reached, endotoxin group 716.11±24.41, normal control 166.86±28.80

Structure (SMILES) | average survival time of mice [1] [h] | concentration of TNF-α in serum of rats (TNF-α in serum; [9]) | concentration of TNF-α in serum of rats (TNF-α in serum; [10]) | concentration of TNF-α in serum of rats (TNF-α in serum; [11]) | pathological changes of the lung tissue under microscope [2] | number of mice survived ([3]; 75 mg/kg endotoxin) | number of mice died ([3]; 75 mg/kg endotoxin) | survival rate of mice [3] [%] | pathological changes of the liver tissue under microscope [4] | further results
CCN(CC)CC1CCCCN1CC(=O)N1c2ccccc2C(=O)Nc2cccnc21 (centres unmarked) [AF-DX116, 11-[[2-[(Diethylamino)methyl]-1-piperidinyl]acetyl]-5,11-dihydro-6H-pyrido[2,3-b][1,4]benzodi azepin-6-one] | 16.02 ± 2.06 | 706.19 ± 6.00 pg/mL | 757.48 ± 51.40 pg/mL | 857.21 ± 74.14 pg/mL | the destruction of the tissue was aggravated; also recorded: pathological changes were aggravated | 1 | 9 | 10 | cell necrosis was more serious; also recorded: cell necrosis was more severe | concentration of TNF-α in serum of rats (TNF-α in serum; 150 min after sepsis shock was reached, endotoxin group 737.00±16.38, normal control 161.47±9.75): 932.22 ± 17.25 pg/mL
CN1[C@@H]2CC[C@H]1C[C@@H](OC(=O)C(CO)c1ccccc1)C2 (some centres unmarked) [atropine] | 37.15 ± 9.27 | – | – | 598.54±48.85 pg/mL and 598.54 ± 48.85^f pg/mL | congestion, exudation, and necrosis were significantly reduced; also recorded: the exudation was significantly reduced, and alveolar septum widening was reduced | 7 | – | 70 | the lesions were all relieved; also recorded: the edema and necrosis of hepatocytes were all reduced | –
CN1CCN(CC(=O)N2c3ccccc3C(=O)Nc3cccnc32)CC1 [pirenzepine, 11-[(4-methylpiperazin-1-yl)acetyl]-5,11-dihydro-6H-pyrido[2,3-b][1,4]benzodiazepin-6-one] | 44.6 ± 11.96 | 378.12±17.87 pg/mL and 378.12 ± 17.87^a pg/mL | 418.19±22.75 pg/mL and 418.19 ± 22.75^c pg/mL | 446.35±33.04 pg/mL and 446.35 ± 33.04^e pg/mL | congestion, exudation, and necrosis were significantly reduced; also recorded: the exudation was significantly reduced, and edema and inflammation in the alveolar septum were reduced | 8 | 2 | 80 | the lesions were all relieved; also recorded: the lesions were reduced | effect on mortality of mice with sepsis ([1]; 150 mg/kg endotoxin, FIG. 2): significantly reduced the mortality; solubility ([5]; in anhydrous ethanol): very easily soluble; solubility ([5]; in formic acid): soluble; solubility ([5]; in methanol): insoluble; solubility ([5]; in water): soluble; serum TNF-α concentrations compared with the endotoxin-untreated group (TNF-α in serum; rats, at 0, 30, 90 and 150 minutes, p<0.05): significantly lower; effect of low-dose pretreatment on survival time of mice with sepsis [6]: can prolong the survival time; plasma protein binding rate ([7]; in vivo): about 10%; plasma t½ ([7]; in vivo): 10 to 12 h; tmax ([7]; oral): 2 to 3 h; absolute bioavailability ([7]; oral, printed spread (±4,6%)): about 26%; healing rate of the ulcer [8]: 70%-94%; effect on mortality of mice with sepsis ([3]; 75 mg/kg endotoxin, FIG. 1): significantly reduced the mortality
